ChEMBL document CHEMBL3137667, “[Drug-induced liver injury; fourteenth updated edition of the bibliographic database of liver injuries and related drugs]” (Gastroenterol Clin Biol, 2004)

Tests used:
[1] = Highest frequency of moderate liver toxicity observed during clinical trials, expressed as a percentage. [column '% BIOL' in source]; details: human
[2] = Highest frequency of acute liver toxicity observed during clinical trials, expressed as a percentage. [column '% AIGUE' in source]; details: human
[3] = human, serum
[4] = human, serum; remark: listed apart in the source
[5] = human
[6] = human; remark: listed apart in the source
[7] = human; remark: listed apart in the source
[8] = human, serum, 4383 h
[9] = human; remark: listed apart in the source
[10] = human; remark: listed apart in the source
[11] = human; remark: listed apart in the source
[12] = human; remark: listed apart in the source
[13] = human; remark: listed apart in the source
[14] = human; remark: listed apart in the source
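Wherever Hepatotoxicity (association with vascular disease) is given: count of indexed literature references reporting vascular liver injury in humans, e.g. peliosis hepatitis, hepatic veno-occlusive disease or Budd-Chiari syndrome.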
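Wherever Hepatotoxicity (benign tumour) is given: value is a count of indexed literature references citing a benign tumour confirmed by histopathology.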
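Wherever Hepatotoxicity (choleostasis) is given: human cholestatic liver injury, shown by histopathology or by peak ALT or AST elevation over alkaline phosphatase ratio below 2, value counts indexed literature reports.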
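Wherever Hepatotoxicity (chronic liver disease) is given: chronic liver injury confirmed by histopathology or persistently raised serum aminotransferase activity beyond 6 months, value given as the count of indexed literature references.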
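Wherever Hepatotoxicity (cirrhosis) is given: value is a count of indexed literature references reporting cirrhosis confirmed by histopathology.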
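Wherever Hepatotoxicity (cytolytic) is given: human cytolytic liver injury, shown by histopathology or by a ratio above 5 of peak ALT or AST elevation to alkaline phosphatase elevation, value counts indexed references.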
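Wherever Hepatotoxicity (granulomatous hepatitis) is given: value is a count of indexed literature references reporting granulomatous liver disease confirmed by histopathology.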
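Wherever Hepatotoxicity (malignant tumour) is given: malignant tumour confirmed by histopathology, value gives the count of indexed literature references reporting it.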
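Wherever Hepatotoxicity (severe hepatitis) is given: human clinical data: severe hepatitis, meaning potentially life-threatening liver failure or clinically observed cases, the value counts how many indexed literature references report it.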
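Wherever Hepatotoxicity (steatosis) is given: steatosis confirmed by histopathology, value is the count of indexed references.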

Row | SMILES | Hepatotoxicity (moderate) [1] [%] | Hepatotoxicity (acute) [2] [%] | Hepatotoxicity (moderate) [3] | Hepatotoxicity (acute) [4] | Hepatotoxicity (cytolytic) [5] | Hepatotoxicity (choleostasis) [6] | Hepatotoxicity (severe hepatitis) [7] | Hepatotoxicity (chronic liver disease) [8] | Hepatotoxicity (cirrhosis) [9] | Hepatotoxicity (granulomatous hepatitis) [10] | Hepatotoxicity (association with vascular disease) [11] | Hepatotoxicity (steatosis) [12] | Hepatotoxicity (malignant tumour) [13] | Hepatotoxicity (benign tumour) [14]
1 | CC1(C)S[C@@H]2[C@H](N3C(=O)[C@@H](c4ccccc4)NC3(C)C)C(=O)N2[C@H]1C(=O)O [HETACILLIN] | 0 | 0 | 0 | 1 | 1 | 0 | 0 | 0 | 0 | 0 | 0 | 0 | 0 | 0
2 | CC(=O)NCCCCCCNC(C)=O [HEXAMETHYLENEBISACETAMIDE] | 0 | 0 | 0 | 1 | 1 | 0 | 0 | 0 | 0 | 0 | 0 | 0 | 0 | 0
3 | CN1CCCN(C(c2ccccc2)c2ccc(Cl)cc2)CC1 (stereo not drawn) [HOMOCHLORCYCLIZINE] | 0 | 0 | 0 | 1 | 1 | 1 | 0 | 0 | 0 | 0 | 0 | 0 | 0 | 0
4 | CC(=O)[C@@]1(O)CC[C@H]2[C@@H]3CCC4=CC(=O)CC[C@]4(C)[C@H]3CC[C@@]21C [HYDROXYPROGESTERONE] | 0 | 0 | 0 | 1 | 0 | 1 | 0 | 0 | 0 | 0 | 0 | 0 | 0 | 0
5 | CCCCCN(C)CCC(O)(P(=O)(O)O)P(=O)(O)O [IBANDRONIC ACID] | 0.6 | 0 | 1 | 0 | 0 | 0 | 0 | 0 | 0 | 0 | 0 | 0 | 0 | 0
6 | CC(C)(N)C(=O)N[C@H](COCc1ccccc1)C(=O)N1CCC2(CC1)CN(S(C)(=O)=O)c1ccccc12 [IBUTAMOREN] | 21.4 | 0 | 1 | 0 | 0 | 0 | 0 | 0 | 0 | 0 | 0 | 0 | 0 | 0
7 | COC1=C(OC)C(=O)C(CCCCCCCCCCO)=C(C)C1=O [IDEBENONE] | 2.3 | 0 | 1 | 0 | 0 | 0 | 0 | 0 | 0 | 0 | 0 | 0 | 0 | 0
8 | O=P1(NCCCl)OCCCN1CCCl (stereo not drawn) [IFOSFAMIDE] | 3.8 | 6 | 3 | 2 | 2 | 0 | 1 | 0 | 0 | 0 | 0 | 0 | 0 | 0
9 | Cc1cnc(NCCCN(C)C)c2c1[nH]c1ccc3cc(O)ccc3c12 [INTOPLICINE] | 0 | 3.8 | 0 | 1 | 0 | 0 | 0 | 0 | 0 | 0 | 0 | 0 | 0 | 0
10 | O=C(CCOCCOCCOCCOCCC(=O)Nc1c(I)cc(I)c(C(=O)O)c1I)Nc1c(I)cc(I)c(C(=O)O)c1I [IODOXAMIC ACID] | 0 | 0 | 1 | 1 | 0 | 0 | 0 | 0 | 0 | 0 | 0 | 0 | 0 | 0
11 | O=C(COCC(=O)Nc1c(I)cc(I)c(C(=O)O)c1I)Nc1c(I)cc(I)c(C(=O)O)c1I [IOGLYCAMIC ACID] | 0 | 0 | 1 | 0 | 0 | 0 | 0 | 0 | 0 | 0 | 0 | 0 | 0 | 0
12 | O=C(COCCOCCOCC(=O)Nc1c(I)cc(I)c(C(=O)O)c1I)Nc1c(I)cc(I)c(C(=O)O)c1I [IOTROXIC ACID] | 0 | 0 | 1 | 0 | 0 | 0 | 0 | 0 | 0 | 0 | 0 | 0 | 0 | 0
